Holding throughout (type): functional
Assay [1] has as its system Mycobacterium kansasii. Briefly: Antimycobacterial activity against Mycobacterium kansasii CNCTC My 235/80 after 14 days by micromethod. Particulars: CNCTC My 235/80, 336 h.
The test system of assay [2] is Mycobacterium tuberculosis. The assay can be described thus: Antimycobacterial activity against Mycobacterium tuberculosis CNCTC My 331/88 after 21 days by micromethod. Particulars: CNCTC My 331/88, 504 h.
Assay [3] concerns Mycobacterium avium. Briefly: Antimycobacterial activity against Mycobacterium avium CNCTC My 330/88 after 21 days by micromethod. Particulars: CNCTC My 330/88, 504 h.
Assay [4] relates to Mycobacterium kansasii. Briefly: Antimycobacterial activity against Mycobacterium kansasii CNCTC My 235/80 after 21 days by micromethod. Particulars: CNCTC My 235/80, 504 h.
The subject of assay [5] is Mycobacterium tuberculosis. The assay can be described thus: Antimycobacterial activity against Mycobacterium tuberculosis CNCTC My 331/88 after 14 days by micromethod. Particulars: CNCTC My 331/88, 336 h.
Assay [6] deals with Mycobacterium kansasii. The assay can be described thus: Antimycobacterial activity against Mycobacterium kansasii 6509/96 after 21 days by micromethod. Particulars: 6509/96, 504 h.
Assay [7] relates to Mycobacterium kansasii. Briefly: Antimycobacterial activity against Mycobacterium kansasii 6509/96 after 14 days by micromethod. Particulars: 6509/96, 336 h.
The test system of assay [8] is Mycobacterium kansasii. The assay can be described thus: Antimycobacterial activity against Mycobacterium kansasii 6509/96 after 7 days by micromethod. Particulars: 6509/96, 168 h.
The test system of assay [9] is Mycobacterium avium. The assay can be described thus: Antimycobacterial activity against Mycobacterium avium CNCTC My 330/88 after 14 days by micromethod. Particulars: CNCTC My 330/88, 336 h.
Assay [10] concerns Mycobacterium kansasii. The assay can be described thus: Antimycobacterial activity against Mycobacterium kansasii CNCTC My 235/80 after 7 days by micromethod. Particulars: CNCTC My 235/80, 168 h.

For nine molecules, MIC results are on record in ChEMBL document CHEMBL3297661, “1-Substituted-5-[(3,5-dinitrobenzyl)sulfanyl]-1H-tetrazoles and their isosteric analogs: A new class of selective antitubercular agents active against drug-susceptible and multidrug-resistant mycobacteria” (Eur J Med Chem, 2014).

Each structure is given as a SMILES string. In brackets after ≈: the same amount, converted by molar mass.

For orientation: MIC means the lowest concentration found to suppress growth. Low readings indicate inhibition by little substance, high ones a need for much substance. As to `Nn1nnnc1SCc1cc([N+](=O)[O-])cc([N+](=O)[O-])c1`, the MIC in assay [1] stood at 32 µM (≈ 9.51 µg/mL); in [2], 16 µM (≈ 4.76 µg/mL); in [3], 1000 µM (≈ 297 µg/mL); in [4], 32 µM (≈ 9.51 µg/mL); in [5] it was 8 µM (≈ 2.38 µg/mL); in assay [6], 32 µM (≈ 9.51 µg/mL). Also, the MIC in assay [7] is 32 µM (≈ 9.51 µg/mL); in assay [8], 16 µM (≈ 4.76 µg/mL); in assay [9], 1000 µM (≈ 297 µg/mL); in [10], 8 µM (≈ 2.38 µg/mL).
Consider `O=[N+]([O-])c1cc(COc2nnnn2-c2ccccc2)cc([N+](=O)[O-])c1`, for which the MIC in [1] came out at 16 µM (≈ 5.48 µg/mL); in assay [2], 4 µM (≈ 1.37 µg/mL); in [3], 125 µM (≈ 42.8 µg/mL); in assay [4], 32 µM (≈ 11 µg/mL); in assay [5], 2 µM (≈ 0.685 µg/mL); in assay [6] it was 32 µM (≈ 11 µg/mL). The MIC in assay [7] is 16 µM (≈ 5.48 µg/mL); in assay [8], 8 µM (≈ 2.74 µg/mL); in assay [9], 125 µM (≈ 42.8 µg/mL); in [10] it was 8 µM (≈ 2.74 µg/mL).
With `CCCCCCn1nnnc1[Se]Cc1cc([N+](=O)[O-])cc([N+](=O)[O-])c1`, the MIC in [1] worked out at 2 µM (≈ 0.827 µg/mL); in assay [2], 1 µM (≈ 0.413 µg/mL); in assay [3], 32 µM (≈ 13.2 µg/mL); in assay [4], 2 µM (≈ 0.827 µg/mL); in assay [5] it was 1 µM (≈ 0.413 µg/mL); in assay [6], 4 µM (≈ 1.65 µg/mL). Also, the MIC in assay [7] amounted to 4 µM (≈ 1.65 µg/mL); in assay [8], 2 µM (≈ 0.827 µg/mL); in assay [9] it was 16 µM (≈ 6.61 µg/mL); in assay [10], 1 µM (≈ 0.413 µg/mL).
As for `O=[N+]([O-])c1cc(CSc2nnnn2-c2ccc(Br)cc2)cc([N+](=O)[O-])c1`, the MIC in [1] is 2 µM (≈ 0.874 µg/mL); in assay [2] it was 1 µM (≈ 0.437 µg/mL); in assay [3], 125 µM (≈ 54.7 µg/mL); in assay [4] it was 2 µM (≈ 0.874 µg/mL); in [5], 1 µM (≈ 0.437 µg/mL); in [6] it was 4 µM (≈ 1.75 µg/mL). In addition, the MIC was 4 µM (≈ 1.75 µg/mL) in [7], 2 µM (≈ 0.874 µg/mL) in assay [8], 125 µM (≈ 54.7 µg/mL) in [9] and 1 µM (≈ 0.437 µg/mL) in assay [10].
Turning to `COc1cc(-n2nnnc2SCc2cc([N+](=O)[O-])cc([N+](=O)[O-])c2)cc(OC)c1OC`, the MIC in assay [1] was determined as 32 µM (≈ 14.3 µg/mL); in assay [2], 16 µM (≈ 7.17 µg/mL); in assay [3] it was 250 µM (≈ 112 µg/mL); in assay [4] it was 32 µM (≈ 14.3 µg/mL); in assay [5], 16 µM (≈ 7.17 µg/mL); in assay [6], 32 µM (≈ 14.3 µg/mL). Further, the MIC in assay [7] was found to be 16 µM (≈ 7.17 µg/mL); in assay [8] it was 16 µM (≈ 7.17 µg/mL); in assay [9] it was 250 µM (≈ 112 µg/mL); in assay [10] it was 16 µM (≈ 7.17 µg/mL).
As for `O=[N+]([O-])c1cc(CS(=O)(=O)c2nnnn2-c2ccccc2)cc([N+](=O)[O-])c1`, the MIC in [1] was 62 µM (≈ 24.2 µg/mL); in assay [2] it was 8 µM (≈ 3.12 µg/mL); in assay [3], 125 µM (≈ 48.8 µg/mL); in assay [4], 62 µM (≈ 24.2 µg/mL); in [5] it was 8 µM (≈ 3.12 µg/mL); in assay [6], 62 µM (≈ 24.2 µg/mL). The MIC in assay [7] came to 62 µM (≈ 24.2 µg/mL); in assay [8], 32 µM (≈ 12.5 µg/mL); in assay [9], 62 µM (≈ 24.2 µg/mL); in assay [10] it was 32 µM (≈ 12.5 µg/mL).
With `O=[N+]([O-])c1cc(CSc2nnn[nH]2)cc([N+](=O)[O-])c1`, the MIC in assay [1] was determined as 1000 µM (≈ 282 µg/mL); in assay [2] it was 1000 µM (≈ 282 µg/mL); in assay [3] it was 1000 µM (≈ 282 µg/mL); in assay [4], 1000 µM (≈ 282 µg/mL); in assay [5] it was 1000 µM (≈ 282 µg/mL); in [6] it was 500 µM (≈ 141 µg/mL). Also, the MIC was found to be 500 µM (≈ 141 µg/mL) in assay [7], 250 µM (≈ 70.6 µg/mL) in assay [8], 1000 µM (≈ 282 µg/mL) in assay [9] and 250 µM (≈ 70.6 µg/mL) in assay [10].
As to `O=[N+]([O-])c1cc(C[Se]c2nnnn2-c2ccc(Br)cc2)cc([N+](=O)[O-])c1`, the MIC amounted to 4 µM (≈ 1.94 µg/mL) in assay [1]; 2 µM (≈ 0.968 µg/mL) in assay [2]; 125 µM (≈ 60.5 µg/mL) in assay [3]; 4 µM (≈ 1.94 µg/mL) in assay [4]; 2 µM (≈ 0.968 µg/mL) in assay [5]; 8 µM (≈ 3.87 µg/mL) in assay [6]. Further, the MIC in [7] is 4 µM (≈ 1.94 µg/mL); in assay [8] it was 2 µM (≈ 0.968 µg/mL); in [9], 125 µM (≈ 60.5 µg/mL); in assay [10] it was 2 µM (≈ 0.968 µg/mL).
Consider `O=[N+]([O-])c1cc(CSCc2ccccc2)cc([N+](=O)[O-])c1`, for which the MIC came out at 125 µM (≈ 38 µg/mL) in [1]; 250 µM (≈ 76.1 µg/mL) in [2]; 125 µM (≈ 38 µg/mL) in assay [3]; 125 µM (≈ 38 µg/mL) in assay [4]; 250 µM (≈ 76.1 µg/mL) in assay [5]; 125 µM (≈ 38 µg/mL) in assay [6]. In addition, the minimal inhibitory concentration (MIC) in [7], in assay [8], in assay [9] and in [10] was 125 µM (≈ 38 µg/mL) in each case.
